In PubChem BioAssay AID2060499 (Molecular Pharmacology Branch, DTP, NCI, 2025):
Several values for one entry are separate records, joined by “and”; a condition that tells them apart may be missing. Identical values can stand only once.

Tested on: 777334-354-R2-J4-PDC tumor spheroids with HUVEC/MSC, viability
Test: Anticancer human tumor 777334-354-R2-J4-PDC patient-derived pancreatic adenocarcinoma cell line growth inhibition [GQUAD]
Settings: for viability, T/C: stronger effect = lower value
From the text: DNA G-quadruplex Stabilizer Agents in Combinations in Complex Spheroids
A high-throughput screen of multi-cell type tumor spheroids was designed to identify active combinations of DNA G-quadruplex stabilizer agents and targeted small molecules. Complex spheroids include a stromal component modeled by human endothelial cells (HUVEC) and fibroblasts modeled by human mesenchymal stem cells (MSCs). The concentration ranges selected for each drug and investigational agent were based upon clinically achievable concentrations if the clinical Cmax of the agent was known.
Compounds. The drugs and investigational agents: pidnarulex (CX-5461; NSC782164), APTO-253 (NSC789042), BRACO-19 (NSC847499), peposertib (NSC802822), ceralasertib (NSC780249), elimusertib (NSC800525), camonsertib (NSC841442), AZD-1390 (NSC803789), olaparib (NSC753686), talazoparib (NSC767125), ART-558 (NSC835418), sotorasib (NSC818433), MRTX-1133 (NSC836407), SN-38 (NSC673596), topotecan (NSC609699), etoposide (NSC141540), doxorubicin (NSC123127), gemcitabine (NSC613327), 5-fluorouracil (NSC19893), paclitaxel (NSC125973), vemurafenib (NSC761431), panobinostat (NSC761190), R-306465 (JNJ-16241199; NSC773264), adavosertib (NSC754352), TP-3654 (NSC805149), carboplatin (NSC241240), KSQ-4279 (NSC840948), and staurosporine (NSC755774) were obtained from the National Cancer Institute (NCI) Developmental Therapeutics Program Chemical Repository (34). The FDA-approved anticancer drug set is available from the NCI Developmental Therapeutics Program. […] The stock solutions were prepared in dimethyl sulfoxide (DMSO, Sigma-Aldrich, St. Louis, MO, cat. D2650) at 800-fold the tested concentration and stored at -70 degrees C prior to their use. All drugs and investigational agents were tested over a range starting from a high concentration at or near the clinical Cmax and decreasing in half-log increments. If the clinical Cmax for an agent had not been determined, the highest concentration tested was 10 microM.
2.3 Cell Culture. All cells were maintained in an incubator at 37 degrees C and 5% CO2 with 95% humidity. The PDC lines were cultured according to standard operating procedures established by the NCI PDMR. All PDCs were thawed and cultured in Matrigel-coated flasks prepared with a working solution of 1X Ham's F-12 nutrient mix, without supplementation (Invitrogen, cat. 11765054), 100 U/mL penicillin-streptomycin (Invitrogen, cat. 15140122), and 2.5% Matrigel (Corning Inc., cat. 354248) for the first three passages. The 857933-349-R-J2-PDC line was cultured in 6C/Colon 1B media, which includes advanced DMEM/F-12 (Thermo Fisher Scientific, cat. 12634028), 10 mM HEPES (Thermo Fisher Scientific, cat. 15630080), 1X GlutaMAX supplement (Thermo Fisher Scientific, cat. 35050061), 0.1 mg/mL primocin (InvivoGen, cat. ant-pm-2), 10% defined fetal bovine serum, heat inactivated (HyClone Laboratories Inc., cat. SH30070.03HI), 50% L-WRN conditioned media (ATCC, cat. CRL-3276), 1.25 mM N-Acetyl-L-cysteine (Sigma-Aldrich, cat. A9165), 10 mM nicotinamide (Sigma-Aldrich, cat. N0636), 1X B-27 supplement (Thermo Fisher Scientific, cat. 17504044), 1X N-2 supplement (Thermo Fisher Scientific, cat. 17502048), 10 microM Y-27632 dihydrochloride (Tocris Bioscience, cat. 1254), and 50 ng/mL human EGF recombinant protein (Thermo Fisher Scientific, cat. PHG0311). The 485176-168-R4-J1-PDC line was cultured in Panc media, which includes all 6C/Colon 1B media components plus 100 ng/mL human FGF-10 (Thermo Fisher Scientific, cat. 100-26), 500 nM SB-431542 (Selleckchem, cat. S1067), and gastrin (Tocris, cat. 3006).
[…]
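Further: spheroids exposed to compounds for 7 days before readout.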

Structure (SMILES) | viability, T/C (compound 0.0316 µM) | viability, T/C (compound 0.1 µM) | viability, T/C (compound 0.316 µM) | viability, T/C (compound 1 µM) | viability, T/C (compound 3.16 µM) | viability, T/C (compound 10 µM) | IC50 (curve of compound) | IC50 (compound alone, run of 03/26/2024)
O=C(c1cc(Cc2n[nH]c(=O)c3ccccc23)ccc1F)N1CCN(C(=O)C2CC2)CC1 | 92.5% and 109% and 99% | 111% and 84% and 105% | 96.9% and 103% and 102% | 84.4% and 89.3% and 94.1% | 88.8% and 76.5% and 101% | 77.2% and 75.9% and 79.5% | > 10000 nM | 
CN(C)c1ccc(Nc2c3ccc(NC(=O)CCN4CCCC4)cc3nc3cc(NC(=O)CCN4CCCC4)ccc23)cc1 | 98.1% [middle of 12 runs] | 101% [middle of 12 runs] | 94.1% [middle of 12 runs] | 94.9% [middle of 12 runs] | 90.3% [middle of 12 runs] | 81.3% [middle of 12 runs] |  | > 10000 nM
C=CCn1c(=O)c2cnc(Nc3ccc(N4CCN(C)CC4)cc3)nc2n1-c1cccc(C(C)(C)O)n1 | 93.8% and 101% and 99.7% | 85.8% and 102% and 88% | 81.1% and 84.7% and 74.9% | 43.1% and 45.4% and 41.5% | 35.6% and 37.4% and 39% | 30.4% and 38.4% and 35.2% | 821 nM and 869 nM and 787 nM | 
CC(C)n1c(=O)n(C)c2cnc3cc(F)c(-c4ccc(OCCCN5CCCCC5)nc4)cc3c21 | 105% and 94.1% and 104% | 106% and 95% and 101% | 113% (2×) and 111% | 104% and 99.3% and 108% | 110% and 98.5% and 112% | 101% and 94.6% and 86.2% | > 10000 nM | 
COc1cccc2c1C(=O)c1c(O)c3c(c(O)c1C2=O)CC(O)(C(=O)CO)CC3OC1CC(N)C(O)C(C)O1 (stereo not given) | 95.8% and 98.8% and 102% | 86.7% and 89.4% and 89.9% | 69% and 68.8% and 73.9% | 42% and 47.4% and 37.8% | 22.2% and 23.6% and 27.6% | 12.6% and 13% and 11.9% | 713 nM and 819 nM and 733 nM | 
